In paper PMC3164379, “Three New Compounds from Aspergillus terreus PT06-2 Grown in a High Salt Medium” (Marine Drugs, 2011):
≈ marks a conversion by molar mass, not a printed value. Read-outs that look alike come from different tables or passages of the source.

Legend:
Enterobacter aerogenes = experiment: Antimicrobial activity, agar dilution method; settings: for MIC Enterobacter aerogenes: agar dilution, paper disks, 24 h incubation, 37 °C; for MIC: Klebsiella aerogenes, 24 h, read-out: MIC Enterobacter aerogenes
Experimental: (§1) Antimicrobial activity against E. aerogenes, P. aeruginosa, S. aureus and C. albicans was evaluated using an agar dilution method [29]. The tested strains were cultivated in LB agar plates for bacteria and in YPD agar plates for C. albicans, at 37 °C. Compounds and positive controls were dissolved in 5% DMSO-H2O at different concentrations from 1000 to 62.5 μg/mL and then from 50 to 0.78 μg/mL, using continuous 2-fold dilution. The test solutions (5 μL) were absorbed onto paper disks (5 mm diameter) and placed on the assay plates. After 24 h incubation, zones of inhibition (mm in diameter) were recorded. The minimum inhibitory concentrations were defined as the lowest concentration at which an inhibition zone could be observed.

Pseudomonas aeruginosa = experiment: Antimicrobial activity, agar dilution method; settings: for MIC Pseudomonas aeruginosa: agar dilution, paper disks, 24 h incubation, 37 °C; for MIC: Pseudomonas aeruginosa, 24 h
Experimental: as §1

Staphylococcus aureus = experiment: Antimicrobial activity, agar dilution method; settings: for MIC Staphylococcus aureus: agar dilution, paper disks, 24 h incubation, 37 °C; for MIC: Staphylococcus aureus, 24 h, read-out: MIC Staphylococcus aureus
Experimental: as §1

Candida albicans = experiment: Antimicrobial activity, agar dilution method; settings: for MIC: Candida albicans, 24 h, read-out: MIC Candida albicans
Experimental: as §1

[1] = tested on: influenza virus (A/Puerto Rico/8/34 (H1N1), PR/8); experiment: Antiviral activity against H1N1, CPE inhibition assay; assay type: cell-based; settings: read-out: IC50 anti-H1N1 activity
[2] = Cytotoxicity against confluent MDCK cells by MTT method; assay type: cell-based; settings: dog, read-out: CC50 (50% cytotoxicity concentration)
Experimental: (§2) Cytotoxicity against HL-60 and BEL-7402 cancer cell lines and confluent MDCK cells was assayed by the MTT method [28]. Cell lines were grown in RPMI-1640 supplemented with 10% FBS under a humidified atmosphere of 5% CO2 and 95% air at 37 °C. […] Then, 2 μL of the test solutions (in MeOH) were added to each well and further incubated for 72 h. The MTT solution (20 μL, 5 mg/mL in IPMI-1640 medium) was then added to each well and incubated for 4 h. Old medium containing MTT (150 μL) was then gently replaced by DMSO and pipetted to dissolve any formazan crystals formed. Absorbance was then determined on a SPECTRA MAX PLUS plate reader at 540 nm. The CC50 was calculated as the compound concentration necessary to reduce cell viability by 50%.

HL-60 cell line = experiment: in vitro; settings: human
Experimental: as §2

BEL-7402 cell line = experiment: in vitro; settings: human
Experimental: as §2

[3] = read-out: MIC Pseudomonas aeruginosa, agar dilution, paper disks, 24 h incubation, 37 °C

SMILES	MIC Pseudomonas aeruginosa (Pseudomonas aeruginosa)	MIC (Enterobacter aerogenes)	MIC (Pseudomonas aeruginosa; [3])	MIC (Staphylococcus aureus)	MIC (Candida albicans)	also measured
CC(O)C(=O)O.O=C(O)c1cn(C2CC2)c2cc(N3CCNCC3)c(F)cc2c1=O [Ciprofloxacinlactate, reference compound]	30 µM	–	–	–	–	MIC Enterobacter aerogenes (Enterobacter aerogenes): 1 µM; MIC Staphylococcus aureus (Staphylococcus aureus): 1 µM
COC(=O)c1cccc(O)c1NC(=O)c1ccccc1NC(=O)c1cccnc1 [Compound 1, methyl 3-hydroxy-2-(2-(nicotinamido)benzamido)benzoate]	>100 µM	> 100 µM	63.9 µM (≈ 25 µg/mL)	63.9 µM (≈ 25 µg/mL)	> 100 µM	–
COC(=O)c1cccc(O)c1-n1c(-c2cccnc2)nc2ccccc2c1=O [Compound 2, methyl 3-hydroxy-2-(4-oxo-2-(pyridin-3-yl)quinazolin-3(4H)-yl)benzoate]	–	33.5 µM (≈ 12.5 µg/mL)	> 100 µM	> 100 µM	> 100 µM	–
COC(=O)[C@]1(Cc2ccc(O)c(CCC(C)(C)O)c2)OC(=O)C(O)=C1c1ccc(O)cc1 [Compound 3, (R)-methyl 4-hydroxy-2-(4-hydroxy-3-(3-hydroxy-3-methylbutyl)benzyl)-3-(4-hydroxyphenyl)-5-oxo-2,5-dihydrofuran-2-carboxylate]	–	> 100 µM	–	> 100 µM	> 100 µM	MIC (Pseudomonas aeruginosa; read-out: MIC Pseudomonas aeruginosa): > 100 µM
COC(=O)c1cc(OC)c(OC)c(OC)c1NC(=O)c1ccccc1NC(=O)c1cccnc1 [Compound 4, methyl 3,4,5-trimethoxy-2-(2-(nicotinamido)benzamido)benzoate]	–	> 100 µM	> 100 µM	52.4 µM (≈ 24.4 µg/mL)	> 100 µM	–
COC(=O)[C@]1(Cc2ccc(O)c(CC=C(C)C)c2)OC(=O)C(O)=C1c1ccc(O)cc1 [Compound 5, butyrolactone I]	–	–	–	–	–	IC50 ([1]; MDCK, 48 h): 143 µM; CC50 at 72 h [2]: 976 µM; IC50 at 72 h (HL-60 cell line): 57.5 µM
C/C=C/C1=CC(=O)[C@@H](O)[C@@H]1O [Compound 15, (+)-terrein]	>100 µM	–	–	–	–	MIC Enterobacter aerogenes (Enterobacter aerogenes): >100 µM; MIC Staphylococcus aureus (Staphylococcus aureus): >100 µM; MIC Candida albicans (Candida albicans; agar dilution, YPD agar, paper disks, 24 h incubation, 37 °C): >100 µM
CC(=O)N1CCN(c2ccc(OCC3COC(Cn4ccnc4)(c4ccc(Cl)cc4Cl)O3)cc2)CC1 (stereo not shown) [Ketoconazole, reference compound]	–	–	–	–	5 µM (≈ 2.66 µg/mL)	–
NC(=O)c1ncn([C@@H]2O[C@H](CO)[C@@H](O)[C@H]2O)n1 [Ribavirin, reference compound]	–	–	–	–	–	IC50 ([1]; CPE inhibition in MDCK cells, 48 h post-infection): 101 µM
COc1cc([C@@H]2c3cc4c(cc3[C@@H](O[C@@H]3O[C@@H]5CO[C@@H](C)O[C@H]5[C@H](O)[C@H]3O)[C@H]3COC(=O)[C@H]23)OCO4)cc(OC)c1O [Vp-16, Etoposide, reference compound]	–	–	–	–	–	IC50 at 72 h (HL-60 cell line): 0.042 µM; IC50 at 72 h (BEL-7402 cell line): 830 nM
